Experimental data reported in patent US8685928B2, “Antagonists of MUC1” (Dana-Farber Cancer Institute, Inc., priority 2010, dated 2014).
“Also recorded” adds a separate entry of the source. Positions of bridges follow the written chain, without caps; N, C: chain ends. Non-standard residues stand in square brackets, D forms with d. Residues, ends and D or L forms follow the SMILES beside them.

Experiments:
[1] = tested on: ZR-75-1 Breast cancer cells; assay: Inhibition of cell proliferation, trypan blue exclusion (Table 1); assay type: cell-based, human; conditions: 5 μM peptide every day, 6-day treatment
Experimental: Cells (ZR-75-1 breast carcinoma or H-1975 non-small cell lung carcinoma) were plated separately in 24-well plates for 24 hours prior to treatment with different peptides. The cells were then treated with 5 μM (final concentration) of different peptides every day for 4-6 days. On the day of termination, cells were washed two times with PBS and trypsinized with 0.3 ml of Trypsin/EDTA. Cell growth media was used to stop the trypsin reaction. Following washing, the cells were centrifuged and the cell pellets were re-suspended in PBS for counting in hemacytometer.
The trypan blue dye exclusion method was used to determine the number of viable cells present in a cell suspension. Cell suspension was mixed as 1:1 with the trypan blue dye and then visually examined in a hemacytometer. A viable cell will have a clear cytoplasm whereas a non-viable/dead cell will be stained with trypan blue dye. By doing this trypan blue exclusion method, viable cell numbers were counted and percent inhibition of proliferation was then calculated comparing with untreated controls.

[2] = tested on: A549 NSCLC; conditions: human
Experimental: (§1) GO-203-2 and GO-203-2c were evaluated for ability to inhibit proliferation of murine and human carcinoma cell lines in vitro. Test compound (5 μM final concentration) was added to tumor cell cultures daily for 5 to 6 days, and cell viability was determined by trypan blue dye exclusion.

[3] = tested on: H1650 NSCLC; conditions: human
Experimental: as §1

[4] = tested on: H1975 NSCLC; conditions: human
Experimental: as §1

[5] = tested on: KW-807 LN NSCLC; conditions: mouse
Experimental: as §1

[6] = tested on: KW-814 T6 NSCLC; conditions: mouse
Experimental: as §1

[7] = tested on: MCF-7 breast carcinoma; conditions: human
Experimental: as §1

[8] = tested on: MiaPaCa-2 pancreatic carcinoma; conditions: human
Experimental: as §1

[9] = tested on: ZR-75-1 breast carcinoma; conditions: human
Experimental: as §1

[10] = tested on: ZR-75-1 human breast carcinoma xenograft; assay: ZR-75-1 human breast carcinoma xenograft model, daily dosing for 21 days; assay type: in vivo, mouse; conditions: nu/nu mice
Experimental: Efficacy of GO-203-2c was evaluated in a ZR-75-1 human breast carcinoma xenograft model. Female nu/nu mice (20-30 g; Charles River Laboratories, Wilmington, Mass.) were injected in the thigh with 5 million ZR-75-1 cells in Matrigel suspension. Mice also received subcutaneous 17-β-estradiol pellets. When tumors reached 100-200 mm^3 in size (approximately 12-15 days after implantation), mice were split into 4 groups of 5 mice and administered the following treatments daily for 21 days: phosphate-buffered saline (PBS) IP, 1 mg/kg GO-203-2c IV, 4 mg/kg GO-203-2c IV or 4 mg/kg control peptide CP-3 IV. Each animal was sacrificed when the tumor reached the predetermined endpoint size (˜2500 mm^3) or when the animals remained tumor-free for 180 days after implantation of the tumor cells.

[11] = tested on: A549 non-small cell lung carcinoma xenograft; assay: A549 non-small cell lung carcinoma xenograft model; assay type: in vivo, mouse; conditions: for Tumor response: 7.5 mg/kg
Experimental: Male BALB/c nu/nu mice (6-7 weeks old; Charles River Laboratories, Wilmington, Mass.) were injected with 5 million A549 or PC3 cells in the right thigh. When tumors reached a predetermined size (approximately 80-100 mm^3; 10-16 days after tumor cell implantation), treatment was initiated as follows: Group 1, saline control (daily×21 days); Group 2, GO-203-2c (7.5 mg/kg, 5 days on/2 days off×3 cycles); Group 3, GO-203-2c (7.5 mg/kg, daily×21 days). In the A549 study, Group 3 animals that still had palpable/measurable tumors at the end of the 21-day treatment period were administered an additional 9 days of GO-203-2c treatment (Group 3′), with a one week interim period between treatments.

[12] = target: T1, MUC1-CD (Homo sapiens, UniProt P15941); assay: MUC1-CD oligomerization in HEK 293T cells transfected with GFP- and Flag-tag MUC1-CD; assay type: cell-based; conditions: HEK 293T cells transfected with human MUC1-CD
T1 construct: Mucin 1 (MUC1) oncoprotein cytoplasmic domain (MUC1-CD); expressed in transfected cells; host or cells: HEK 293T
T1 sequence (P15941 1182-1255 limits assumed): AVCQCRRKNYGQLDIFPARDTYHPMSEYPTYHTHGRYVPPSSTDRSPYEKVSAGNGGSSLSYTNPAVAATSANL
Excerpt: This finding is not surprising based on a requirement for the cysteine residues in the GO-203-2 binding domain (CQCRRKN) to be available for binding with cysteine residues on the corresponding binding domain of the MUC1-CD protein.

[13] = Pivotal repeat-dose rat toxicity study; assay type: in vivo; conditions: for Safety margin: human starting dose lower than NOAEL: 3 mg/m^2 human starting dose
Experimental: The proposed clinical trial will be a multicenter, open-label, dose-escalation, safety, pharmacodynamic and pharmacokinetic study in patients with advanced solid tumors administered GO-203-2c IV over 60 min once per day for 21 consecutive days; this dosing regimen will be repeated every 28 days. Since the majority of the treatment-related findings in rats and dogs were localized at the infusion site or were secondary to the infusion site reactions, the no-observed-adverse-effect-level (NOAEL) for systemic toxicity in the pivotal repeat-dose rat toxicity study was determined to be 5 mg/kg/day. The highest non-severely toxic dose (HNSTD), which was also considered the NOAEL, was established as 1 mg/kg/day in the dog pivotal repeat-dose toxicity study. For vascular injury at the injection site, the NOAEL in rats is […]. This concentration rate is 25-fold greater than the estimated concentration rate for humans (0.83 μg/mL/min) at the recommended starting dose of 3 mg/m2/day (assumes a body mass of 1.65 m2).

[14] = Hygroscopicity; assay type: physicochemical; conditions: drug substance powder
Excerpt: There is no evidence to support an isolable hydrate. GO-203-2c HCl is hygroscopic, and precautions must be taken to avoid moisture uptake while handling the drug substance powder.

[15] = target: adrenergic α1B receptor (Homo sapiens, UniProt P35368); assay: biochemical
Sequence of adrenergic α1B receptor (P35368 whole entry): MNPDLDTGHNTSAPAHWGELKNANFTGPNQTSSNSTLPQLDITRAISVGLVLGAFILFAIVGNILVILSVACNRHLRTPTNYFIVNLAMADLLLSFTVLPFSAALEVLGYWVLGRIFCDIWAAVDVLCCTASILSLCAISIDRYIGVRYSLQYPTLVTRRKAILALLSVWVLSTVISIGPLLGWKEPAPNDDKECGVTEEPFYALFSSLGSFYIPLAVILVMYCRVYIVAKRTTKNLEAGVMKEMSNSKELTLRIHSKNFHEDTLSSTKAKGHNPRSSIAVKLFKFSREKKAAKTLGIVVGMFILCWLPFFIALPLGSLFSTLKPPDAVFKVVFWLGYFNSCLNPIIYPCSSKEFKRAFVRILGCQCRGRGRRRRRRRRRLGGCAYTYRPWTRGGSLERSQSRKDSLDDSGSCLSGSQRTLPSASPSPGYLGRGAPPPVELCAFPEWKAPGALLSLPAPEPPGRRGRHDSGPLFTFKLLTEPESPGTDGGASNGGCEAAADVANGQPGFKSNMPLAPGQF

## CC(=O)N[C@H](CCCNC(=N)N)C(=O)N[C@H](CCCNC(=N)N)C(=O)N[C@H](CCCNC(=N)N)C(=O)N[C@H](CCCNC(=N)N)C(=O)N[C@H](CCCNC(=N)N)C(=O)N[C@H](CCCNC(=N)N)C(=O)N[C@H](CCCNC(=N)N)C(=O)N[C@H](CCCNC(=N)N)C(=O)N[C@H](CCCNC(=N)N)C(=O)N[C@@H]1CSSC[C@H](C(=O)N[C@H](CCCNC(=N)N)C(=O)N[C@H](CCCNC(=N)N)C(=O)N[C@H](CCCCN)C(=O)N[C@H](CC(N)=O)C(N)=O)NC(=O)[C@@H](CCC(N)=O)NC1=O [GO-203-2c, Ac-(D)Arg-(D)Arg-(D)Arg-(D)Arg-(D)Arg-(D)Arg-(D)Arg-(D)Arg-(D)Arg-(D)Cys-(D)Gln-(D)Cys-(D)Arg-(D)Arg-(D)Lys-(D)Asn-NH2 disulfide] (Ac-[dR][dR][dR][dR][dR][dR][dR][dR][dR][dC][dQ][dC][dR][dR][dK][dN]-NH2; disulfide 10-12)
[1]
  Avg (viable cell number of Groups 1-3): 9.83
[1]; vs untreated control
  % inhibition: 58.69%
[1]; well having 10,000 cells
  Group-1 (viable cell number, individual well): 9.18
  Group-2 (viable cell number, individual well): 11.22
  Group-3 (viable cell number, individual well): 8.55
[2]
  % Inhibition of cell viability: 73.1%
[3]
  % Inhibition of cell viability: 89.0%
[4]
  % Inhibition of cell viability: 46.2%
[5]
  % Inhibition of cell viability: 40.3%
[6]
  % Inhibition of cell viability: 70.1%
[7]
  % Inhibition of cell viability: 87.7%
[8]
  % Inhibition of cell viability: 81.5%
[9]
  % Inhibition of cell viability: 43.6%
[10]; 1 mg/kg IV daily for 21 days
  Tumor response: Partial tumor regression
[10]; 4 mg/kg IV daily for 21 days
  Tumor response: complete regression of tumor growth
[11]; 5 days on/2 days off x 3 cycles
  Tumor response: tumor growth arrest during the treatment period, but the tumors resumed growth; also recorded: started growing steadily after day 9
[11]; daily x 21 days
  Tumor response: slowed down tumor growth substantially
[11]; additional 9 days of treatment from day 29
  Tumor response after re-dosing: somewhat stabilized with a very slow growth
[11]; daily x 21 days group after 7 days of rest, at start of re-dosing
  Average tumor size on day 29: ~900 mm^3
[12]
  Inhibition of MUC1-CD oligomerization: inhibition
[13]; human starting dose of 3 mg/m2/day
  Rat injection-site NOAEL concentration rate relative to estimated human concentration rate (0.83 μg/mL/min): 25 fold
[13]; in vivo, rat, repeat-dose IV, read-out: NOAEL for systemic toxicity
  NOAEL: 5 mg/kg/day
[13]; rat, body surface area basis
  NOAEL (systemic): 30 mg/m2/day
[13]; rat, mg/kg basis
  Safety margin: human starting dose lower than NOAEL: 62 fold
[13]; rat, mg/m^2 basis
  Safety margin: human starting dose lower than NOAEL: 10 fold
[13]; rats
  NOAEL for vascular injury at the injection site (concentration rate): 20.8 µg/mL/min
[14]
  Hygroscopicity: hygroscopic
[15]
  IC50: 3 to 8 µM
